{
  "source": "patent US11931324B2",
  "about": "“Pharmaceutical composition for prevention or treatment of osteoarthritis comprising obtusifolin, derivative thereof, or pharmaceutically acceptable salt thereof as active ingredient” (KOREA INSTITUTE OF SCIENCE AND TECHNOLOGY, priority 2021, dated 2024)",
  "key": {"[1]": {"system": "primary chondrocytes", "test": "lactate dehydrogenase (LDH) cytotoxicity assay", "type": "cell-based, mouse", "details": "24 hours, concentration of about 200 μM or less (FIG. 1)", "experimental": "(§1) Mouse chondrocytes isolated from femur and tibial plateau were obtained from ICR mice of 5-days old. Cells were cultured in Dulbecco's Modified Eagle's medium to which about 10% fetal bovine serum and about 1% penicillin/streptomycin, and then grown in an incubator under conditions maintained with about 5% CO2 and a temperature of about 37° C. C57BL/6 mice (male, 10-weeks old, weighing about 18 g to 20 g, and n=5) were purchased from DBL (Chungcheongbuk-do, South Korea). The C57BL/6 mice were housed at a temperature of about 23° C. and exposed to a light-dark cycle of about 12 hours. Food and water were provided regularly. All animal experiments were performed under the approval of the Ajou University Animal Care and Use Committee.\nThe primary chondrocytes were treated with obtusifolin (0 μM, about 25 μM, about 50 μM, about 100 μM, and about 200 μM) and cultured for about 24 hours. Then, the supernatant of the culture was collected and allowed for a reaction using a LDH-cytotoxicity assay kit (K311-400; BioVision). According to the recommendations provided by the kit manufacturer, values were measured.\nIn this experimental example, cytotoxicity of obtusifolin was measured using a lactate dehydrogenase-assay to determine whether obtusifolin affected chondrocytes. Detailed experimental methods were described in Reference Example."}, "[2]": {"system": "matrix metalloproteinase 3 (MMP3)", "test": "MMP3 expression in IL-1β-treated chondrocytes (RT-PCR, qRT-PCR)", "type": "cell-based, mouse", "experimental": "(§2) Interleukin 1 beta (IL-1β) purchased from GenScript (Piscataway, NJ, USA) was dissolved in purified water. Obtusifolin and celecoxib were purchased from Sigma-Aldrich (St. Louis, MO, USA). Primary chondrocytes of the mice were cultured for 4 days under conditions of a temperature of about 37° C. and about 5% CO2. Afterwards, IL-1β (about 1 ng/mL) and either of obtusifolin or celecoxib were treated and cultured for about 24 hours. Then, the cultured chondrocytes were collected after about 5 days. To confirm the signal transduction pathway regulated by obtusifolin, the chondrocytes were pre-treated with obtusifolin or celecoxib and cultured for about 24 hours. […]\n(§3) Chondrocyte RNAs were isolated using Trizol and chloroform. […] Transcription levels were quantified by qRT-PCR (ABI, Beverley, UK; StepOnePlus Real-Time PCR System). […]\n(§4) In detail, chondrocytes treated with pro-inflammatory cytokine, IL-1β (about 1 ng/mL), for about 24 hours were treated with obtusifolin (about 0 μM to about 200 μM) or Celecoxib (about 50 μM). Then, in the resulting chondrocytes, the expression levels of matrix metalloproteinase 3 (MMP3), matrix metalloproteinase 13 (MMP13), and cyclooxygenase 2 (COX2) were measured by RT-PCR and qRT-PCR. In addition, the activity level of collagenase and the expression level of prostaglandin (PGE2) were measured. […]"}, "[3]": {"system": "matrix metalloproteinase 13 (MMP13)", "test": "MMP13 expression in IL-1β-treated chondrocytes (RT-PCR, qRT-PCR)", "type": "cell-based, mouse", "experimental": "as §2, §3, §4"}, "[4]": {"system": "cyclooxygenase 2 (COX2)", "test": "COX2 expression in IL-1β-treated chondrocytes (RT-PCR, qRT-PCR)", "type": "cell-based, mouse", "experimental": "as §2, §3, §4"}, "[5]": {"system": "collagenase", "test": "total collagenase activity of IL-1β-treated chondrocytes (EnzCheck Gelatinase/Collagenase Assay kit)", "type": "cell-based, mouse", "experimental": "(§5) PGE2 production was evaluated using a PGE2 Immunoassay Kit (R & D System, Minneapolis, Minnesota, USA). Primary articular chondrocytes of mouse were seeded in a 96-well plate (about 2×10^4 cells/well). The level of secreted PGE2 in the primary chondrocytes of mouse treated with obtusifolin and IL-1β (about 1 ng/mL) was measured from the […]. By using an EnzCheck Gelatinase/Collagenase Assay kit (Molecular Probes, Carlsbad, CA, USA), total collagenase activity of the articular chondrocytes cultured in a medium conditioned with obtusifolin and IL-1β (about 1 ng/mL) was measured. The collagenase activity was quantified using a VICTOR X3 microplate reader (PerkinElmer, Waltham, MA, USA) at Ex/Em=490/530 nm according to the protocol provided by the manufacturer. […] After culturing the transfected cells in a complete medium for about 24 hours, luciferase activity was evaluated using an analysis kit (Promega, Madison, WI, USA), and the evaluated activity was normalized by β-galactosidase.\nas §4, with “qRT-PCR.” for “qRT-PCR. In addition, the activity level of collagenase and the expression level of prostaglandin (PGE2) were measured.”"}, "[6]": {"system": "prostaglandin E2 (PGE2)", "test": "PGE2 production in IL-1β-treated chondrocytes (PGE2 Immunoassay Kit)", "type": "cell-based, mouse", "experimental": "as §5\nas §4, with “qRT-PCR.” for “qRT-PCR. In addition, the activity level of collagenase and the expression level of prostaglandin (PGE2) were measured.”"}, "[7]": {"system": "p65", "test": "p65 phosphorylation (NF-κB signal transduction) in IL-1β-treated chondrocytes, Western blotting and densitometry", "type": "cell-based, mouse", "experimental": "as §2, §3\nHere, as a loading control group, Erk1/2 was used. Band intensity was quantified by densitometry (AlphaEase FC 4.0; Alpha Innotech).\nIn detail, the chondrocytes treated with the pro-inflammatory cytokine, IL-1β (about 1 ng/mL), were collected, and the phosphorylation levels of p38, JNK, and p65 were measured through Western blotting. […] The chondrocytes were collected after the culture, and the phosphorylation level of p65 was measured through Western blotting and densitometry. […]"}, "[8]": {"system": "mice that have undergone DMM surgery", "test": "cartilage destruction induced by DMM surgery, mouse model, oral administration", "type": "in vivo", "experimental": "as §1\nAccording to a known technique, destabilization of the medial meniscus (DMM) surgery was performed on a mouse of about 10 week old to induce OA. Here, a Sham-operated mouse was used as a control group. […]\nA mouse cartilage sample obtained from the mouse undergoing the DMM surgery was fixed about 4% para-formaldehyde followed by dehydration for about 2 weeks in about 0.5 mol/L EDTA (pH 8.0), to decalcify. […] The cartilage destruction was measured by Safranin O staining and scored using an Osteoarthritis Research […] International (OARSI) grading system.\nData values were expressed as mean±SEM after repeated experiments. […] Histological data were quantified based on an ordinal grading system including OARSI grades, subchondral bone plate thickness scores, and osteophyte grades, using non-parametric statistical methods. […]\nIn detail, the DMM surgery or shame surgery was performed on mice, and after about 4 weeks of the surgery, obtusifolin (about 10 mg/kg, about 50 mg/kg, or about 100 mg/kg) was administered to each mouse every day for 6 weeks. […] The degree of cartilage destruction was analyzed by analyzing images obtained after the staining. In detail, the OARSI grades, the degree of osteophyte formation, and a thickness of the subchondral bone were measured. […]"}, "[9]": {"details": "chondrocytes treated with IL-1β (about 1 ng/mL), obtusifolin about 0 μM to about 200 μM (FIGS. 2A, 2B)"}, "[10]": {"details": "obtusifolin about 100 μM to about 200 μM vs Celecoxib about 50 μM"}, "[11]": {"details": "chondrocytes treated with IL-1β (about 1 ng/mL), obtusifolin about 0 μM to about 200 μM (FIG. 2C)"}},
  "data": [
    {"smiles": "COc1c(O)c(C)cc2c1C(=O)c1c(O)cccc1C2=O", "note": "[obtusifolin]", "values": [
      {"measurement": "cytotoxicity", "setting": "[1]", "value": "did not exhibit cytotoxicity"},
      {"measurement": "expression level of MMP3", "setting": "[2]; [9]", "value": "decreased in a dose-dependent manner"},
      {"measurement": "effect of reducing expression of MMP3 compared with Celecoxib", "setting": "[2]; [10]", "value": "the same or similar level of effects as Celecoxib"},
      {"measurement": "expression of MMP13", "setting": "[3]; [9]", "value": "decreased again"},
      {"measurement": "effect of reducing expression of MMP13 compared with Celecoxib", "setting": "[3]; [10]", "value": "the same or similar level of effects as Celecoxib"},
      {"measurement": "expression level of COX2", "setting": "[4]; [9]", "value": "decreased in a dose-dependent manner"},
      {"measurement": "effect of reducing expression of COX2 compared with Celecoxib", "setting": "[4]; [10]", "value": "the same or similar level of effects as Celecoxib"},
      {"measurement": "activity of collagenase", "setting": "[5]; [11]", "value": "decreased in a dose-dependent manner"},
      {"measurement": "effect of reducing activity of collagenase compared with Celecoxib", "setting": "[5]; [10]", "value": "the same or similar level of effects as Celecoxib"},
      {"measurement": "expression of PGE2", "setting": "[6]; [11]", "value": "decreased in a dose-dependent manner"},
      {"measurement": "effect of reducing expression of PGE2 compared with Celecoxib", "setting": "[6]; [10]", "value": "the same or similar level of effects as Celecoxib"},
      {"measurement": "inhibition of phosphorylation of P65 compared with Celecoxib", "setting": "[7]; [10]", "value": "the same or similar level to that of Celecoxib"},
      {"measurement": "phosphorylation of P65", "setting": "[7]; pre-treated 24 hours with obtusifolin about 0 μM to 200 μM, then IL-1β (about 1 ng/mL) 10 minutes, as concentration increased (FIGS. 3B, 3C)", "value": "the phosphorylation of P65 was inhibited"},
      {"measurement": "formation of osteophytes", "setting": "[8]; DMM surgery mice, oral about 10, 50 or 100 mg/kg every day for 6 weeks (FIG. 5C)", "value": "reduced in a dose-dependent manner"},
      {"measurement": "degree of cartilage destruction (Safranin O staining)", "setting": "[8]; DMM surgery mice, oral about 10, 50 or 100 mg/kg every day for 6 weeks from 4 weeks after surgery (FIG. 5A)", "value": "decreased in a dose-dependent manner"},
      {"measurement": "effects according to the dose concentration in sham surgery mice", "setting": "[8]; sham surgery mice, oral about 10, 50 or 100 mg/kg every day for 6 weeks (FIGS. 5A to 5D)", "value": "no difference in the effects"}
    ]}
  ]
}
